Source: patent US9212204B2, “Treatment of rett syndrome using glycyl-L-2-methylprolyl-L-glutamic acid” (priority 2011, dated 2015)
Non-standard residues stand in square brackets, D forms with d. Residues, ends and D or L forms follow the SMILES beside them. αMeP = C[C@@]1(C(=O)O)CCCN1

Legend:
[1] = system: subjects with an Autism Spectrum Disorder; assay: Placebo-controlled crossover study in subjects with an Autism Spectrum Disorder; format: in vivo, human
Excerpt: To determine whether G-2-MePE can treat symptoms of ASD, we carry out a study in human beings with ASD. Twenty subjects with an Autism Spectrum Disorder are recruited. Subjects are male and aged between 16 and 65 years (Mean=18.1 SD=3.4). All subjects have an IQ >60 and strict DSM-IV-TR diagnosis of Autistic Disorder or Asperger Disorder, Subjects also meet criteria for an Autism Spectrum Disorder according the ADI-R and ADOS-G instruments, and fulfill the proposed DSM-V criteria for and Autism Spectrum Disorder. Subjects are instructed that concomitant medications are to be stable for at least six weeks prior to study. Subjects receiving medication to treat signs of inattention are tested in the morning and instructed to take their medication in the afternoon. Subjects better treated with atypical anti-psychotic medications indicated for autism are excluded. Subjects are screened for known genetic disorders including and those with Fragile X Syndrome or tuberous sclerosis excluded. Subjects with uncontrolled epilepsy are excluded.
The study is a double blind placebo-controlled crossover study with three phases. Subjects enter each phase of the crossover in a randomized order. In the test phases, subjects receive either placebo, 10 mg/kg T.I.D oral G-2-MePE for five days, or 30 mg/kg T.I.D. oral G-2-MePE. Each phase of the crossover is separated by a washout period of fourteen days.
Subjects are tested at baseline using the following instruments: Wechsler IQ, Abberant Behavior Checklist Community Edition (ABC), Vinelands, Yale-Brown Obsessive Compulsive Scale (YBOCS) compulsion subscale, Social Responsiveness Scale (SRS), Clinical Global Impression of Severity (CGI-S) and their carers complete the Caregiver Strain Questionnaire (CSQ).
Subjects are administered two tasks—the Reading the Mind in the Eyes Test—Revised (RMET) and an Eye Tracking (ET) task, as well as Clinical Global Impression of Improvement (CGI-1). Tasks commence two hours following administration of placebo or either dose of G-2-MePE. The RMET is a computer based task that assesses one's ability to read emotions from the eyes of subtle affective facial expressions and is a widely used test of emotion recognition in patients with autism (2001). Importantly, the RMET is capable of detecting improvement with even a single dose of a pharmacological agent (Guastella et al., 2010). Eye tracking issues are characteristic of patients with autism who spend less time looking at the eyes of photographs of human faces. Again, a single administration of a pharmacologic intervention can ameliorate eye tracking deficits in autism (Andari et al, 2010).
Adverse events are also recorded using standard safety measures.
Statistically, the effect of treatment with G-2-MePE is analysed by conducting a repeated analysis of covariance (ANCOVA) on the effect of treatment on change from baseline scores.

MeCP2 knockout mice = assay: Nocturnal activity measurements; format: in vivo, mouse; conditions: 20 mg/kg i.p. daily; after 6 weeks
Protocol: For the survival measurements, the nocturnal activity analysis and the immunoblot analysis, G-2-MePE (synthesised Albany Molecular Research Inc. (Albany, N.Y.) and supplied by Neuren Pharmaceuticals Limited) is administered daily via intra-peritoneal injections (20 mg/kg, vehicle=saline, 0.01% BSA). The treatment starts at PI 5 and is maintained throughout the course of the experiments. For intracellular physiology experiments, the mice are injected daily with G-2-MePE (20 mg/kg body weight, vehicle=saline, 0.01% BSA) for 2 weeks, from P15 to P28-P32 when they are used for acute slice preparation. For optical imaging experiments, mice are injected with G-2-MePE (20 mg/kg body weight, vehicle=saline, 0.01% BSA) daily from the day of the lid suture to the day of imaging.
Spontaneous motor activity is measured by using an infrared beam-activated movement-monitoring chamber (Opto-Varimax-MiniA; Columbus Instruments, Columbus, Ohio). […] Movement is monitored during the normal 12-h dark cycle (7 p.m. to 7 a.m.). […]
MeCP2−/y mice develop Rett-like symptoms beginning at 4-6 weeks of age when they progressively become lethargic, develop gait ataxia and die between 10 and 12 weeks of age (Chen et al., 2001). Baseline locomotor activity is also recorded in mice after 6 weeks by counting nocturnal infrared beam crossing events within a caged area.

17 month old rats = assay: 8-arm radial maze test, spatial working memory; format: in vivo, rat; conditions: for Working Correct Choice WCC8-12 across days: 9-day washout
Excerpt: Five months after the original experiment the now 17 month old rats were retested for spatial working memory in a radial arm maze.
The apparatus consists of a central platform communicating with 8 identical arms, each with a food cup at the end of the arm
Rats were partially food-deprived for at least 10 days prior to, and throughout the radial maze procedure.
The maze was assembled and positioned so that the experimenter could clearly observe the rats' behavior from a predetermined location. The experimenter numbered the arms of the maze according to their orientation from one to eight in a clock-wise direction.
On day one the doors were inserted into the arms and each rat was confined in the central platform with 20 food pellets for 5 minutes. […] The following day the rats were allowed five minutes to explore the whole maze. All arms were baited with two food pellets in the food cup located at the end of each arm, and one pellet at both the entrance and middle of each arm. This was repeated for at least five, but up to eight days for rats that explored fewer than eight arms in two consecutive sessions. […] At this point it was decided that one of the old rats that had made only one arm entry on eight of the nine days should be excluded from future testing in this procedure. Otherwise all rats were included regardless of the amount of exploring they performed in pre-training.
30 days before the test (five days after pre-training) the 17 Male Wistar month old rats were implanted (under halothane anesthesia) with sub-cutaneous mini-osmotic pumps (Alzet) to dispense drug continuously for 3 weeks. At the completion of the infusion the pumps were removed and the wounds re-sutured (9-day washout allowed).
3. G-2-MePE low dose (2.4 mg/kg/day) n=13
4. G-2-MePE high dose (12.4 mg/kg/day) n=5
Saline and the low dose groups are comprised of all the rats that received those treatments in phase 1 of this experiment (when the rats were 12 months old) regardless of whether they had the one or three week treatment. One rat in each of the saline and high dose groups have been dropped because of skin tumors.
Working memory testing commenced on the ninth day of washout. Rats received 10 daily training sessions over 12 days. The procedure was the same as for pre-training but only the food cups were baited. Rats had 6 minutes to make up to 16 choices by visiting any of the eight arms. A choice was defined as occurring when all four paws were inside an arm. The experimenter recorded the sequence of arm entries with pen and paper, Sessions were terminated after all eight arms had been entered, 16 choices made, or 6 minutes had elapsed. The time taken to enter all eight arms, when this occurred, was recorded.
An arm choice was considered correct when the rat entered an arm not previously visited. […]

C[C@@]1(C(=O)N[C@@H](CCC(=O)O)C(=O)O)CCCN1C(=O)CN [Example G-2-MePE, Glycyl-L-2-methylprolyl-L-glutamic acid] (H-Gly-[αMeP]-Glu-OH)
percent correct responses on the RMET ([1]; 30 mg/kg T.I.D. oral): increases
Serious Adverse Events ([1]; 10 or 30 mg/kg T.I.D. oral): No Serious Adverse Events
adverse events ([1]; 10 or 30 mg/kg T.I.D. oral, vs placebo): no more adverse events than were present during treatment with placebo
tolerability ([1]; ASD population): well tolerated
performance of the RMET test ([1]; overall treatment effect): significant overall improvement
time spent looking at the eye region in the ET test ([1]; overall treatment effect): significant overall improvement
locomotor activity levels (nocturnal infrared beam crossing) (MeCP2 knockout mice): elevates
Correct Choice CC8-12 (17 month old rats; all groups, 10 days of testing): no significant group effect
Working Correct Choice WCC8-12 across days (17 month old rats; high dose 12.4 mg/kg/day s.c. 3 weeks): greatest improvement across days
correct maze choices averaged across days (17 month old rats; higher dose, vs vehicle treated rats, p<0.05, FIG. 18B): more correct entries
Working Correct Choice WCC8-12 across days (17 month old rats; low dose 2.4 mg/kg/day s.c. 3 weeks, vs saline): very little difference
